From patent US10899738B2 (THE REGENTS OF THE UNIVERSITY OF MICHIGAN, priority 2016, dated 2021)

Target: menin protein (Homo sapiens (Human), UniProt O00255)
Assay: biochemical
Assay type: binding
Conditions: FP competitive binding; menin protein 4 nM, FAM-MM2 probe 2 nM; read-out: Menin Binding Affinity IC50
Method: A fluorescence polarization (FP) competitive binding assay was used to determine the binding affinities of representative menin inhibitors. A FAM labeled fluorescent probe was designed and synthesized based on a MLL1 peptide (FAM-MM2). Equilibrium dissociation constant (Kd) value of FAM-MM2 to menin protein was determined from protein saturation experiments by monitoring the total fluorescence polarization of mixtures composed with the fluorescent probe at a fixed concentration and the protein with increasing concentrations up to full saturation. Serial dilutions of the protein were mixed with FAM-MM2 to a final volume of 200 μl in the assay buffer (PBS with 0.02% Bovine γ-Globulin and 4% DMSO. 0.01% Triton X-100 was added right before assays). Final FAM-MM2 concentration was 2 nM. Plates were incubated at room temperature for 30 minutes with gentle shaking to assure equilibrium.
The IC50, see Table 3, and Ki values of representative Compounds of the Disclosure were determined in a competitive binding experiment. Mixtures of 5 μl of the tested compounds in DMSO and 195 μl of preincubated protein/probe complex solution in the assay buffer were added into assay plates which were incubated at room temperature for 30 minutes with gentle shaking. Final concentration of the menin protein was 4 nM, and final probe concentration is 2 nM. […] FP values were measured as described above. IC50 values were determined by nonlinear regression fitting of the competition curves.

Sequence of menin protein (O00255 whole entry): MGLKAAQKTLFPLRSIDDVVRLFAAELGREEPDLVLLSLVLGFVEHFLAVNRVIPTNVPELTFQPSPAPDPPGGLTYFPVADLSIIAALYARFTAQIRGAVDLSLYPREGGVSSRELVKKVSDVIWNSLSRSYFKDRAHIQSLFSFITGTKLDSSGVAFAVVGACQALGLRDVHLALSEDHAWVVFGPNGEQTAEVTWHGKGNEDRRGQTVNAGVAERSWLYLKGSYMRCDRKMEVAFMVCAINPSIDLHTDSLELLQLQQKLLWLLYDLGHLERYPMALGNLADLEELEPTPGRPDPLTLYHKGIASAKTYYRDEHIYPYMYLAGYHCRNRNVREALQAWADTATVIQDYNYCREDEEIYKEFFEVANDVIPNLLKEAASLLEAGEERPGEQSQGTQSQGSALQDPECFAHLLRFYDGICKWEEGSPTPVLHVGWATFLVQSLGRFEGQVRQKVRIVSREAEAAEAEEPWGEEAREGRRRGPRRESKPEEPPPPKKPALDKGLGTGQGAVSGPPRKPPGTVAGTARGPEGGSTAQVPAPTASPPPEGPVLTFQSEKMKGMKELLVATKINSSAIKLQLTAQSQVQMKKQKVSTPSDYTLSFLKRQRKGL

| Structure (SMILES) | IC50 |
| --- | --- |
| COC(=O)N[C@@H]1CCC[C@H]1C(C#N)(c1ccccc1)C1CCN(CC2CN(c3ccc(S(=O)(=O)c4ccncc4)cc3)C2)CC1 (mixture of isomers) [Cpd. No. 346, methyl (rac-(1R,2S)-2-(cyano(phenyl)(1-((1-(4-(pyridin-4-ylsulfonyl)phenyl)azetidin-3-yl)methyl)piperidin-4-yl)methyl)cyclopentyl)carbamate] | 569 nM |
| COC(=O)N[C@@H]1CCC[C@H]1C(C#N)(c1ccccc1)C1CCN(CC2CN(c3ccc(S(=O)(=O)c4cnn(C)c4)cc3)C2)CC1 (mixture of isomers) [Cpd. No. 350, methyl (rac-(1R,2S)-2-(cyano(1-((1-(4-((1-methyl-1H-pyrazol-4-yl)sulfonyl)phenyl)azetidin-3-yl)methyl)piperidin-4-yl)(phenyl)methyl)cyclopentyl)carbamate] | 1200 nM |
| CO[C@@H]1CCC[C@H]1C(C#N)(c1ccccc1)C1CCN(CCCOc2ccc(C#N)cc2)CC1 (mixture of isomers) [compound 175, rac-4-(3-(4-(cyano((1S,2R)-2-methoxycyclopentyl)(phenyl)methyl)piperidin-1-yl)propoxy)benzonitrile] | 8800 nM |
| CO[C@H]1CCC[C@H]1C(C#N)(c1ccccc1)C1CCN(CCCOc2ccc(C#N)cc2)CC1 (mixture of isomers) [compound 176, rac-4-(3-(4-(cyano((1S,2S)-2-methoxycyclopentyl)(phenyl)methyl)piperidin-1-yl)propoxy)benzonitrile] | 140000 nM |
| CO[C@@H]1CCC[C@@H]1C(C#N)(c1ccccc1)C1CCN(CCCOc2ccc(C#N)cc2)CC1 (mixture of isomers) [compound 177, rac-4-(3-(4-(cyano((1R,2R)-2-methoxycyclopentyl)(phenyl)methyl)piperidin-1-yl)propoxy)benzonitrile] | 3600 nM |
| CS(=O)(=O)c1ccc(N2CC(CN3CCC(C(C#N)(c4ccccc4)[C@H]4CCC[C@@H]4O)CC3)C2)cc1 (mixture of isomers) [compound 178, rac-2-((1R,2S)-2-hydroxycyclopentyl)-2-(1-((1-(4-(methylsulfonyl)phenyl)azitidin-3-yl)methyl)piperidin-4-yl)-2-phenylacetonitrile] | 6500 nM |
| CS(=O)(=O)c1ccc(N2CC(CN3CCC(C(C#N)(c4ccccc4)[C@@H]4CCC[C@H]4O)CC3)C2)cc1 (mixture of isomers) [compound 179, rac-2-((1S,2R)-2-hydroxycyclopentyl)-2-(1-((1-(4-(methylsulfonyl)phenyl)azetidin-3-yl)methyl)piperidin-4-yl)-2-phenylacetonitrile] | 3800 nM |
| CO[C@@H]1CCC[C@H]1C(C#N)(c1ccccc1)C1CCN(CC2CN(c3ccc(S(C)(=O)=O)cc3)C2)CC1 (mixture of isomers) [compound 180, rac-2-((1S,2R)-2-methoxycyclopentyl)-2-(1-((1-(4-(methylsulfonyl)phenyl)azetidin-3-yl)methyl)piperidin-4-yl)-2-phenylacetonitrile] | 9700 nM |
| CO[C@H]1CCC[C@@H]1C(C#N)(c1ccccc1)C1CCN(CC2CN(c3ccc(S(C)(=O)=O)cc3)C2)CC1 (mixture of isomers) [compound 181, rac-2-((1R,2S)-2-methoxycyclopentyl)-2-(1-((1-(4-(methylsulfonyl)phneyl)azetidin-3-yl)methyl)piperidin-4-yl)-2-phenylacetonitrile] | 18100 nM |
| CS(=O)(=O)c1ccc(N2CC(CN3CCC(C(C#N)(c4ccccc4)[C@H]4CCC[C@H]4S(C)(=O)=O)CC3)C2)cc1 (mixture of isomers) [compound 182, rac-2-((1R,2R)-2-(methylsulfonyl)cyclopentyl)-2-(1-((1-(4-(methylsulfonyl)phenyl)azetidin-3-yl)methyl)piperidin-4-yl)-2-phenylacetonitrile] | 23700 nM |
| CC(=O)O[C@H]1CCC[C@@H]1C(C#N)(c1ccccc1)C1CCN(CC2CN(c3ccc(S(C)(=O)=O)cc3)C2)CC1 (mixture of isomers) [compound 183, rac-(1S,2R)-2-(cyano(1-((1-(4-(methylsulfonyl)phenyl)azetidin-3-yl)methyl)piperidin-4-yl)(phenyl)methyl)cyclopentyl acetate] | 73 nM |
| CC(=O)O[C@@H]1CCC[C@H]1C(C#N)(c1ccccc1)C1CCN(CC2CN(c3ccc(S(C)(=O)=O)cc3)C2)CC1 (mixture of isomers) [compound 184, rac-(1R,2S)-2-(cyano(1-((1-(4-(methylsulfonyl)phenyl)azetidin-3-yl)methyl)piperidin-4-yl)(phenyl)methyl)cyclopentyl actate] | 2600 nM |
| CC(=O)O[C@@H]1CCC[C@H]1C(C#N)(c1ccccc1)C1CCN(CC2CN(c3ccc(S(=O)(=O)c4ccncc4)cc3)C2)CC1 (mixture of isomers) [compound 186, rac-(1R,2S)-2-(cyano(phenyl)(1-((1-(4-(pyridin-4-ylsulfonyl)phenyl)azetidin-3-yl)methyl)piperidin-4-yl)methyl)cyclopentyl acetate] | 1000 nM |
| CC(=O)O[C@@H]1CCC[C@H]1C(C#N)(c1ccccc1)C1CCN(CC2CN(c3ccc(S(=O)(=O)C4CC4)cc3)C2)CC1 (mixture of isomers) [compound 188, rac-((1R,2S)-2-(cyano(1-((1-(4-(cyclopropylsulfonyl)phenyl)azetidin-3-yl)methyl)piperidin-4-yl)(phenyl)methyl)cyclopentyl acetate] | 1700 nM |
| CCO[C@@H]1CCC[C@H]1C(C#N)(c1ccccc1)C1CCN(CC2CN(c3ccc(S(C)(=O)=O)cc3)C2)CC1 (mixture of isomers) [compound 189, rac-2-((1S,2R)-2-ethoxycyclopentyl)-2-(1-((1-(4-(methylsulfonyl)phenyl)azetidin-3-yl)methyl)piperidin-4-yl)-2-phenylacetonitrile] | 20500 nM |
| CC(C)C(=O)O[C@H]1CCC[C@@H]1C(C#N)(c1ccccc1)C1CCN(CC2CN(c3ccc(S(=O)(=O)c4ccncc4)cc3)C2)CC1 (mixture of isomers) [compound 193, rac-(1S,2R)-2-(cyano(phenyl)(1-((1-(4-(pyridin-4-ylsulfonyl)phenyl)azetidin-3-yl)methyl)piperidin-4-yl)methyl)cyclopentyl isobutyrate] | 237 nM |
| CC(C)C(=O)O[C@@H]1CCC[C@H]1C(C#N)(c1ccccc1)C1CCN(CC2CN(c3ccc(S(=O)(=O)c4ccncc4)cc3)C2)CC1 (mixture of isomers) [compound 194, rac-(1R,2S)-2-(cyano(phenyl)(1-((1-(4-(pyridin-4-ylsulfonyl)phenyl)azetidin-3-yl)methyl)piperidin-4-yl)methyl)cyclopentyl isobutyrate] | 165000 nM |
| CCC(=O)O[C@@H]1CCC[C@H]1C(C#N)(c1ccccc1)C1CCN(CC2CN(c3ccc(S(=O)(=O)c4ccncc4)cc3)C2)CC1 (mixture of isomers) [compound 196, rac-(1R,2S)-2-(cyano(phenyl)(1-((1-(4-(pyridin-4-ylsulfonyl)phenyl)azetidin-3-yl)methyl)piperidin-4-yl)methylcyclopentyl propionate] | 1000 nM |
| N#CC(c1ccccc1)(C1CCN(CC2CN(c3ccc(S(=O)(=O)c4ccncc4)cc3)C2)CC1)[C@H]1CCC[C@@H]1OC(=O)C1CC1 (mixture of isomers) [compound 197, rac-(1S,2R)-2-(cyano(phenyl)(1-((1-(4-(pyridin-4-ylsulfonyl)phenyl)azetidin-3-yl)methyl)piperidin-4-yl)methyl)cyclopentyl cyclopropanecarboxylate] | 18 nM |
| N#CC(c1ccccc1)(C1CCN(CC2CN(c3ccc(S(=O)(=O)c4ccncc4)cc3)C2)CC1)[C@@H]1CCC[C@H]1OC(=O)C1CC1 (mixture of isomers) [compound 198, rac-(1R,2S)-2-(cyano(phenyl)(1-((1-(4-(pyridin-4-ylsulfonyl)phenyl)azetidin-3-yl)methyl)piperidin-4-yl)methyl)cyclopentyl cyclopropanecarboxylate] | 853 nM |
| CCO[C@@H]1CCC[C@H]1C(C#N)(c1ccccc1)C1CCN(CC2CN(c3ccc(S(=O)(=O)c4ccncc4)cc3)C2)CC1 (mixture of isomers) [compound 199, rac-2-((1S,2R)-2-ethoxycyclopentyl)-2-phenyl-2-(1-((1-(4-(pyridin-4-ylsulfonyl)phenyl)azetidin-3-yl)methyl)piperidin-4-yl)acetonitrile] | 9000 nM |
| CC(=O)O[C@@H]1CCC[C@H]1C(C#N)(c1ccccc1)C1CCN(CC2CN(c3ccc(S(=O)(=O)c4ccnc(C)c4)cc3)C2)CC1 (mixture of isomers) [compound 200, rac-(1R,2S)-2-(cyano(1-((1-(4-((2-methylpyridin-4-yl)sulfonyl)phenyl)azetidin-3-yl)methyl)piperidin-4-yl)(phenyl)methyl)cyclopentyl acetate] | 17 nM |
| CC(=O)O[C@H]1CCC[C@@H]1C1(C2CCN(CC3CN(c4ccc(S(=O)(=O)c5ccnc(C)c5)cc4)C3)CC2)CN(C)Cc2ccccc21 (mixture of isomers) [compound 202, rac-(1R,2S)-2-(2-methyl-4-(1-((1-(4-((2-methylpyridin-4-yl)sulfonyl)phenyl)azetidin-3-yl)methyl)piperidin-4-yl)-1,2,3,4-tetrahydroisoquinolin-4-yl)cyclopentyl acetate] | 113 nM |
| CC(=O)O[C@@H]1CCC[C@H]1C1(C2CCN(CC3CN(c4ccc(S(=O)(=O)C5CC5)cc4)C3)CC2)CN(C)Cc2ccccc21 (mixture of isomers) [compound 204, rac-(1R,2S)-2-(4-(1-((1-(4-(cyclopropylsulfonyl)phenyl)azetidin-3-yl)methyl)piperidin-4-yl)-2-methyl-1,2,3,4-tetrahydroisoquinolin-4-yl)cyclopentyl acetate] | 122 nM |
